Consider one compound from US20230148599A1, “FUNGICIDAL MIXTURES CONTAINING PYRAZOLE DERIVATIVES” (FMC Corporation, priority 2020, published 2023).

Common to all, as to format: in vivo
The test system of assay [1] is Alternaria solani. The assay is described as follows: Test F1 (comparative): tomato early blight, tomato seedlings. As to conditions: Rate 10 ppm, 100 = 100% disease control. The source says:
(§1) General protocol for preparing test suspensions for Tests A1-F1: the test compounds were first dissolved in acetone in an amount equal to 3% of the final volume and then suspended at the desired concentration (in ppm) in acetone and purified water (50/50 mix by volume) containing 250 ppm of the surfactant PEG400 (polyhydric alcohol esters). The resulting test suspensions were then used in Tests A1-F1.
The test suspension was sprayed to the point of run-off on tomato seedlings. The following day the seedlings were inoculated with a spore suspension of Alternaria solani (the causal agent of tomato early blight) and incubated in a saturated atmosphere at 27° C. for 48 h, and then moved to a growth chamber at 20° C. for 3 days, after which time visual disease ratings were made.
(§2) A rating of 100 indicates 100% disease control and a rating of 0 indicates no disease control (relative to the controls).

Assay [2] relates to Septoria tritici. The assay is described as follows: Test A: wheat leaf blotch, preventive spray on wheat seedlings. As to conditions: Zymoseptoria tritici, 456 h, 100 = 100% disease control, 0 = no control, read-out: Test A disease control rating. In a few lines: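 Preventive test: one day after spraying seedlings to run-off (concentrations in ppm; acetone/water, 250 ppm PEG400), Septoria tritici spores applied. Scored after 48 h humid incubation at 24 °C plus 17 days at 20 °C, as percent disease control versus untreated controls (100 = full control).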

The subject of assay [3] is Alternaria solani. The assay is described as follows: Test F: tomato early blight, preventive spray on tomato seedlings. As to conditions: 120 h, 100 = 100% disease control, 0 = no control, read-out: Test F disease control rating. A digest of the protocol:
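Preventive test: one day after the compound spray, seedlings were inoculated with A. solani, incubated saturated at 27 °C for 48 h, then kept at 20 °C for 3 days. Test suspensions contained acetone/water 50/50 with 250 ppm PEG400 surfactant. Visual ratings run from 0 (no control) to 100 (full control).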

Assay [4] relates to Puccinia recondita f. sp. tritici. In words: Test B: wheat leaf rust, preventive spray on wheat seedlings. As to conditions: 192 h, 100 = 100% disease control, 0 = no control, read-out: Test B disease control rating. A digest of the protocol:
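Preventive test: compound in acetone/water 50/50 with 250 ppm PEG400 was sprayed onto wheat seedlings one day before inoculation with leaf rust spores. After 24 h in saturated air and 7 days in a growth chamber, both at 20 °C, disease control was scored from 0 to 100 against controls.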

For assay [5], the system named is Botrytis cinerea. In words: Test E1 (comparative): tomato Botrytis, tomato seedlings. The conditions noted are these: 100 = 100% disease control.
Excerpt: as §1
The test suspension was sprayed to the point of run-off on tomato seedlings. The following day the seedlings were inoculated with a spore suspension of Botrytis cinerea (the causal agent of tomato Botrytis) and incubated in a saturated atmosphere at 20° C. for 48 h, and then moved to a growth chamber at 24° C. for 3 days, after which time visual disease ratings were made.
as §2

Assay [6] relates to Blumeria graminis f. sp. tritici. The assay is described as follows: Test C1 (comparative): wheat powdery mildew, wheat seedlings. The conditions noted are these: 100 = 100% disease control.
Excerpt: as §1
The test suspension was sprayed to the point of run-off on wheat seedlings. The following day the seedlings were inoculated with a spore dust of Blumeria graminis f. sp. tritici, (also known as Erysiphe graminis f. sp. tritici, the causal agent of wheat powdery mildew) and incubated in a growth chamber at 20° C. for 8 days, after which time visual disease ratings were made.
as §2

Assay [7] has as its system Phakopsora pachyrhizi. The assay is described as follows: Test D: Asian soybean rust, preventive spray on soybean seedlings. As to conditions: 216 h, 100 = 100% disease control, 0 = no control, read-out: Test D disease control rating. A digest of the protocol:
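Compounds in acetone/water (50/50) with 250 ppm PEG400, dosed in ppm, sprayed to run-off on soybean seedlings; inoculated with P. pachyrhizi spores next day. Held 24 h at 22 °C in saturated air, then 8 days at 22 °C; visual rating of disease control, 0–100, relative to untreated controls.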

The test system of assay [8] is Botrytis cinerea. In words: Test E: tomato Botrytis, preventive spray on tomato seedlings. The conditions noted are these: 120 h, 100 = 100% disease control, 0 = no control, read-out: Test E disease control rating. In a few lines:
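Preventive test: seedlings sprayed to run-off with compound in acetone/water (50/50) plus 250 ppm PEG400, inoculated one day later with B. cinerea spores. Held 48 h saturated at 20° C, then 3 days at 24° C; disease control scored visually from 0 to 100 versus controls.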

In assay [9] the test system is Puccinia recondita f. sp. tritici. In words: Test B1 (comparative): wheat leaf rust, wheat seedlings. As to conditions: 100 = 100% disease control.
Excerpt: as §1
The test solution was sprayed to the point of run-off on wheat seedlings. The following day the seedlings were inoculated with a spore suspension of Puccinia recondita f. sp. tritici (the causal agent of wheat leaf rust) and incubated in a saturated atmosphere at 20° C. for 24 h, and then moved to a growth chamber at 20° C. for 7 days, after which time disease ratings were made.
as §2

For assay [10], the system named is Septoria tritici. The assay is described as follows: Test A1 (comparative): wheat leaf blotch, wheat seedlings. The conditions noted are these: 100 = 100% disease control, 0 = no control.
Excerpt: as §1
The test solution was sprayed to the point of run-off on wheat seedlings. The following day the seedlings were inoculated with a spore suspension of Septoria tritici (the causal agent of wheat leaf blotch) and incubated in a saturated atmosphere at 24° C. for 48 h, and then moved to a growth chamber at 20° C. for 17 days, after which time disease ratings were made.
as §2

Regarding `Cc1nn(C)c(Nc2c(F)cccc2[N+](=O)[O-])c1-c1ccc(F)cc1Cl` [Compound 112, 4-(2-chloro-4-fluorophenyl)-N-(2-fluoro-6-nitrophenyl)-1,3-dimethyl-1H-pyrazol-5-amine], in assay [1], the “Test F1 disease control rating” value came out at 99%. In addition, the pest or weed control at 10 ppm in assay [2] (10 ppm) was 72%; in assay [3] (10 ppm), 98%; in assay [4] (10 ppm), 100%; in [7] (10 ppm), 52%; in [8] (10 ppm), 100%. Moreover, the pest or weed control at 50 ppm is 88% in assay [2] (50 ppm); 100% in assay [3] (50 ppm); 100% in [4] (50 ppm); 99% in assay [7] (50 ppm); 100% in [8] (50 ppm). The “Test E1 disease control rating” value in [5] (Rate 10 ppm) and in assay [5] (Rate 50 ppm) was 99% each time. Besides, the “Test C1 disease control rating” value was found to be 97% in assay [6] (Rate 10 ppm) and 98% in [6] (Rate 50 ppm). The “Test B1 disease control rating” value in assay [9] (Rate 10 ppm) worked out at 86%; in [9] (Rate 50 ppm), 100%. Further, the “Test A1 disease control rating” value came to 81% in assay [10] (Rate 10 ppm) and 100% in [10] (Rate 50 ppm).
